Laboratory results: patent US7855205B2, “Pyrimidinyl substituted fused-pyrrolyl compounds useful in treating kinase disorders” (Janssen Pharmaceutica NV, priority 2004, dated 2010)

Columns and labels:
CDK1:Cyclin-B = molecular target: T1, CDK1:Cyclin-B (Homo sapiens, UniProt P06493); assay: CDK1 Screening Assay; type: biochemical; conditions: 33P-γ-ATP incorporation, 10 μM ATP
T1 construct: purchased New England Biolabs, Beverly, Mass; 6020; host or cells: insect cells
How it was run: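 Human CDK1/cyclin B co-expressed in insect cells (30 ng/well) in 50 mM Tris pH 8, 10 mM MgCl2, with 10 μM ATP, 33P-γ-ATP and 0.025 μM biotinylated histone H1 peptide (reaction-mix levels); 1% DMSO final. 1 h at 30° C. 33P incorporation into streptavidin-captured peptide by scintillation counting.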

[1] = system: HeLa cervical adenocarcinoma; assay: Inhibition of cell proliferation (14C-thymidine incorporation), HeLa; type: cell-based; conditions: Homo sapiens;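 further: HeLa cells in 96-well scintillating plates, compound for 24 h then 24 h more with 14C-thymidine, counting label built into new DNA against DMSO-only control wells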
VEGF-R2 = molecular target: T2, VEGF-R2 (Rattus norvegicus, UniProt O08775); assay: VEGF-R2 Screening Assay; type: biochemical; conditions: 33P-γ-ATP incorporation, 10 μM ATP
T2 construct: polyhistidine (N)
T2 sequence (O08775 786-1343): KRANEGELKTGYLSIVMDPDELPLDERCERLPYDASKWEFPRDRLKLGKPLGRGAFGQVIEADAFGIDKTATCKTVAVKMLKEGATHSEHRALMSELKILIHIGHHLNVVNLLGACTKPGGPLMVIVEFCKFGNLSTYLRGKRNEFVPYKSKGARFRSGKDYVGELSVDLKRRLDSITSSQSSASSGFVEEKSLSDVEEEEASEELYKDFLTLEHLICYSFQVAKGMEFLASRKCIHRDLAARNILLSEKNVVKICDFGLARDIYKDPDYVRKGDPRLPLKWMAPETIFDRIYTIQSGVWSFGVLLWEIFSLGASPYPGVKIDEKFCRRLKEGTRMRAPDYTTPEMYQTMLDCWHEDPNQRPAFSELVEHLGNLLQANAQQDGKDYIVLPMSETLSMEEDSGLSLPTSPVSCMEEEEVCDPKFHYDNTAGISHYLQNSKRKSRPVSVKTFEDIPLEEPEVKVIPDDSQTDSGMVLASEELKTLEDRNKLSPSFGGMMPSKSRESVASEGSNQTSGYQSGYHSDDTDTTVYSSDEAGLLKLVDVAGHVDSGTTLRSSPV
How it was run: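 The N-terminally His-tagged rat VEGF-R2 kinase domain (aa 786-1343), diluted in 50 mM Tris-HCl pH 8.0 with 0.1% BSA, phosphorylated a biotinylated histone-H1 peptide with 33P-γ-ATP on Flashplates for 1 h at 30 °C in 1% DMSO. After washes with EDTA/PBS, immobilized 33P was counted by scintillation.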

RET = molecular target: T3, RET (Homo sapiens, UniProt P07949); assay: RET Kinase Screening Assay; type: biochemical; conditions: 33P-γ-ATP incorporation, 10 μM ATP
T3 construct: the RET cytoplasmic domain consisting of the last 492 amino acids of the intracellular domain of the RET tyrosine kinase; histidine tag (N); made in house; host or cells: Hi5 insect cells
T3 sequence (P07949 658-1114 limits assumed): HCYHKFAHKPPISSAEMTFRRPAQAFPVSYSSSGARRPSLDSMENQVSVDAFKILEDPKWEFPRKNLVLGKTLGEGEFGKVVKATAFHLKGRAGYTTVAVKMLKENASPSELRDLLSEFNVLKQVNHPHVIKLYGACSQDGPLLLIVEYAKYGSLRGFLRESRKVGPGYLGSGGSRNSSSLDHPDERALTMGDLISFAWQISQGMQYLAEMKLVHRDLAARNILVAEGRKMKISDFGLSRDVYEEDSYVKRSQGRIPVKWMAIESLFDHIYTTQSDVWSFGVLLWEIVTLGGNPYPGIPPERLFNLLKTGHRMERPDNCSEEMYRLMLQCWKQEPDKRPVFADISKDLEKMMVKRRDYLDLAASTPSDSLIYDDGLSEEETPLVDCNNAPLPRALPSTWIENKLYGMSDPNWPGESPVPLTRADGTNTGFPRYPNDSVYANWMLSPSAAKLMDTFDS

Aurora-A = molecular target: T4, Aurora-A (Mus musculus, UniProt P97477); assay: Aurora-A Screening Assay; type: biochemical, murine; conditions: 33P-γ-ATP incorporation, 10 μM ATP
T4 construct: made in house; host or cells: sf9 insect cells
T4 sequence (P97477 1-395): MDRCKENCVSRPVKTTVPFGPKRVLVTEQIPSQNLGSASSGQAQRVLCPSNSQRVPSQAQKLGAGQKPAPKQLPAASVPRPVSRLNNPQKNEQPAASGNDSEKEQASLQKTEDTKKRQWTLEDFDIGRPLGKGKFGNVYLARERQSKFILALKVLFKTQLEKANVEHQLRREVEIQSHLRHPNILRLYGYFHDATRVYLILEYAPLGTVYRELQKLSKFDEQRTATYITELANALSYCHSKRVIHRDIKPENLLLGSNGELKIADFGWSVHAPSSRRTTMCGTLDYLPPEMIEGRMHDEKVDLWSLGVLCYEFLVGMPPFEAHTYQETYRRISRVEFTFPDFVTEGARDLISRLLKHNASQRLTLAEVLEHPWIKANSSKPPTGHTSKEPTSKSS

A375 malignant melanoma = assay: Inhibition of cell proliferation (14C-thymidine incorporation), A375; type: cell-based, human; conditions: Homo sapiens, A-375
How it was run: (§1)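 Cells (3000-8000/well) grown 24 h at 37° C, 5% CO2, then given compound in DMSO for 24 h before adding methyl 14C-thymidine (0.2 uCi/well) for a further 24 h with drug. After PBS washes, incorporation into DNA counted by scintillation.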

HCT-116 colon carcinoma = assay: Inhibition of cell proliferation (14C-thymidine incorporation), HCT-116; type: cell-based; conditions: Homo sapiens, HCT-116, HCT116
How it was run: as §1

T1 sequence (P06493 whole entry): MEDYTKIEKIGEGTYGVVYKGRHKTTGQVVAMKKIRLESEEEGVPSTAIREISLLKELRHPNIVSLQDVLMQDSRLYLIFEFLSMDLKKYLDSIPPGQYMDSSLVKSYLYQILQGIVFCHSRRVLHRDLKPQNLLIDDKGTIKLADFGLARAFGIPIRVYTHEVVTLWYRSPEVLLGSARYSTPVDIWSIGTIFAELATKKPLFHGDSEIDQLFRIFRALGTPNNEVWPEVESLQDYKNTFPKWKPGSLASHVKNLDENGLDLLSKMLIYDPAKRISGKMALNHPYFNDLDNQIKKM
T1 sequence (P14635 whole entry partner): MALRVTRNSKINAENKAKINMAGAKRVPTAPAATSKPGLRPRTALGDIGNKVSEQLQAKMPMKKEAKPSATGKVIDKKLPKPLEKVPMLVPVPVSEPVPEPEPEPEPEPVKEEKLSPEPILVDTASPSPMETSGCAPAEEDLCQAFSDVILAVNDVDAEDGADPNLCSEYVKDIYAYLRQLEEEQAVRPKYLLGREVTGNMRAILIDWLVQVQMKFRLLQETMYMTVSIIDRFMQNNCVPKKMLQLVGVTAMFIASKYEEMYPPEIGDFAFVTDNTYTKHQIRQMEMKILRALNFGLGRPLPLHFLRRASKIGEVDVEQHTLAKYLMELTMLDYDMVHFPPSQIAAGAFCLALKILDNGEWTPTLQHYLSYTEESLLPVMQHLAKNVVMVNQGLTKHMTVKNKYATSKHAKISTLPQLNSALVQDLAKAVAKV

Row | Structure (SMILES) | IC50 (CDK1:Cyclin-B) [µM] | IC50 [1] [µM] | IC50 (VEGF-R2) [µM] | IC50 (RET) [µM] | IC50 (Aurora-A) [µM] | IC50 (A375 malignant melanoma) [µM] | IC50 (HCT-116 colon carcinoma) [µM]
1 | CNCCc1ccc(Nc2nccc(-c3c[nH]c4ncccc34)n2)c(Cl)c1 [Cpd 53] | 0.0441 | 0.123 | 1.31 | 2.36 | 0.408 | 0.0913 | 0.127
2 | Clc1cc(CCN2CCOCC2)ccc1Nc1nccc(-c2c[nH]c3ncccc23)n1 [Cpd 56, {2-Chloro-4-[2-(morpholin-4-yl)ethyl]phenyl}-[4-(1H-pyrrolo[2,3-b]pyridin-3-yl)-pyrimidin-2-yl]-amine] | 0.105 | 1.1 | 1.04 | 1.24 | 0.859 | 0.727 | 0.774
3 | Nc1ccc(Nc2nccc(-c3c[nH]c4ncccc34)n2)cc1 [Cpd 37, (4-Aminophenyl)-[4-(1H-pyrrolo[2,3-b]pyridin-3-yl)-pyrimidin-2-yl]-amine] | 0.035 | 0.194 | 0.211 | 1.62 | 0.386 | 0.185 | 0.0828
4 | CN(C)CCc1ccc(Nc2nccc(-c3c[nH]c4ncccc34)n2)c(Cl)c1 [Cpd 54] | 0.0612 | 0.281 | 2.31 | 4.06 | 0.908 | 0.215 | 0.269
5 | CN1CCN(CCc2ccc(Nc3nccc(-c4c[nH]c5ncccc45)n3)c(Cl)c2)CC1 [Cpd 55, {2-Chloro-4-[2-(4-methylpiperizin-1-yl)ethyl]phenyl}-[4-(1H-pyrrolo[2,3-b]pyridin-3-yl)-pyrimidin-2-yl]-amine] | 0.0408 | 0.292 | 0.342 | 1.15 | 0.785 | 0.233 | 0.264
6 | Cc1ccc(Nc2nccc(-c3c[nH]c4ncccc34)n2)cc1 [Cpd 10, [4-(1H-Pyrrolo[2,3-b]pyridin-3-yl)-pyrimidin-2-yl]-p-tolyl-amine] | 0.04 | 0.22 | 0.2 | ~10 | 0.29 | 0.25 | 0.23
7 | Clc1ccccc1Nc1nccc(-c2c[nH]c3ncccc23)n1 [Cpd 12, (2-Chloro-phenyl)-[4-(1H-pyrrolo[2,3-b]pyridin-3-yl)-pyrimidin-2-yl]-amine] | 0.0092 | 0.14 | 0.878 | > 10 | 0.287 | 0.1 | 0.16
8 | OCCc1ccc(Nc2nccc(-c3c[nH]c4ncccc34)n2)c(Cl)c1 [Cpd 52] | 0.0087 | 0.162 | 0.322 | 0.54 | 0.0757 | 0.134 | 0.121
9 | Clc1ccc(Nc2nccc(-c3c[nH]c4ncccc34)n2)cc1 [Cpd 11, (4-Chloro-phenyl)-[4-(1-H-pyrrolo[2,3-b]pyridin-3-yl)-pyrimidin-2-yl]-amine] | 0.0696 | 1.01 | ~1 | > 10 | ~1 | 0.97 | 0.56
10 | COc1ccccc1Nc1nccc(-c2c[nH]c3ncccc23)n1 [Cpd 7, (2-Methoxy-phenyl)-[4-(1H-pyrrolo[2,3-b]pyridin-3-yl)-pyrimidin-2-yl]-amine] | 0.044 | 0.35 | 0.82 | > 10 | 0.497 | 0.35 | 0.29
11 | Cc1cccc(C)c1Nc1nccc(-c2c[nH]c3ncccc23)n1 [Cpd 35, (2,6-Dimethylphenyl)-[4-(1H-pyrrolo[2,3-b]pyridin-3-yl)-pyrimidin-2-yl]-amine] | 0.017 | 0.0903 | 0.975 | 1 | 0.556 | 0.0369 | 0.0331
12 | COc1cccc(Nc2nccc(-c3c[nH]c4ncccc34)n2)c1 [Cpd 6, (3-Methoxy-phenyl)-[4-(1H-pyrrolo[2,3-b]pyridin-3-yl)-pyrimidin-2-yl]-amine] | 0.119 | 1.46 | 0.14 | ~1 | 0.1 | 0.95 | 0.72

The next molecules have a lower IC50 [1] than those just listed; values first:

Row | IC50 (CDK1:Cyclin-B) [µM] | IC50 [1] [µM] | IC50 (VEGF-R2) [µM] | IC50 (RET) [µM] | IC50 (Aurora-A) [µM] | IC50 (A375 malignant melanoma) [µM] | IC50 (HCT-116 colon carcinoma) [µM] | Structure (SMILES)
13 | 0.01 | 0.0662 | 0.149 | 1 | 0.084 | 0.0565 | 0.0244 | CCOc1ccc(Nc2nccc(-c3c[nH]c4ncccc34)n2)cc1 [Cpd 40, (4-Ethoxyphenyl)-[4-(1H-pyrrolo[2,3-b]pyridin-3-yl)-pyrimidin-2-yl]-amine]
14 | 0.011 | 0.059 | 0.238 | 1.14 | 0.134 | 0.05 | 0.034 | COc1ccc(Nc2nccc(-c3c[nH]c4ncccc34)n2)cc1 [Cpd 5, (4-Methoxy-phenyl)-[4-(1H-pyrrolo[2,3-b]pyridin-3-yl)-pyrimidin-2-yl]-amine]
15 | 0.0096 | 0.0358 | 0.081 | 0.821 | 0.112 | 0.0494 | 0.0216 | CN(C)c1ccc(Nc2nccc(-c3c[nH]c4ncccc34)n2)cc1 [Cpd 38, (4-Dimethylaminophenyl)-[4-(1H-pyrrolo[2,3-b]pyridin-3-yl)-pyrimidin-2-yl]-amine]
16 | 0.0603 | 0.0269 | 1.07 | 1.23 | 1.3 | 0.0218 | 0.015 | c1cnc2[nH]cc(-c3ccnc(NC4CCNCC4)n3)c2c1 [Cpd 65, Piperidin-4-yl-[4-(1H-pyrrolo[2,3-b]pyridin-3-yl)pyrimidin-2-yl]-amine]
17 | 0.000764 | 0.0059 | 0.927 | 4.82 | 0.119 | 0.00858 | 0.00492 | Cc1cc(O)ccc1Nc1nccc(-c2c[nH]c3ncccc23)n1 [Cpd 79, 3-Methyl-4-[4-(1H-pyrrolo[2,3-b]pyridin-3-yl)-pyrimidin-2-ylamino]-phenol]
18 | 0.00095 | 0.00337 | 0.583 | 1.54 | 0.317 | 0.00167 | 0.0022 | CNCCc1ccc(Nc2nccc(-c3c[nH]c4ncccc34)n2)c(C)c1 [Cpd 45]
19 | 0.0014 | 0.00302 | 0.882 | 1.4 | 0.972 | 0.00288 | 0.00292 | CCN(CC)CCc1ccc(Nc2nccc(-c3c[nH]c4ncccc34)n2)c(C)c1 [Cpd 47]
20 | 0.0011 | 0.00268 | 0.959 | 3.07 | 0.902 | 0.00284 | 0.00283 | Cc1cc(CCN2CCCCC2)ccc1Nc1nccc(-c2c[nH]c3ncccc23)n1 [Cpd 50, {4-[2-(Piperidin-1-yl)ethyl]-2-methylphenyl}-[4-(1H-pyrrolo[2,3-b]pyridin-3-yl)-pyrimidin-2-yl]-amine]
21 | – | 0.00255 | 0.875 | 3.52 | 0.86 | 0.00255 | 0.00301 | Cc1cc(CCN2CCCC2)ccc1Nc1nccc(-c2c[nH]c3ncccc23)n1 [Cpd 48]
22 | 0.00196 | 0.00252 | 0.75 | 2.28 | 0.333 | 0.00282 | 0.00294 | Cc1cc(CCN2CCOCC2)ccc1Nc1nccc(-c2c[nH]c3ncccc23)n1 [Cpd 49, {4-[2-(Morpholin-4-yl)ethyl]-2-methylphenyl}-[4-(1H-pyrrolo[2,3-b]pyridin-3-yl)-pyrimidin-2-yl]-amine]
